Each structure is given as a SMILES string. Active and inactive are the calls of the source.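 Rule for the calls: active = fitted curve reaches 40% activation below the top valid dose in every replicate test, signal rising; inconclusive = replicate tests disagree on the call; inactive = all replicate tests inactive, including opposite-direction effects.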

The values below come from PubChem BioAssay AID1053121 (Broad Institute, 2014).

This experiment can be described thus: glycosylation-sensitive ERlucT reporter luminescence gain – D54 ERlucT glioma cells, dry powder, set 6, N-linked glycosylation inhibitor project, dose response (AID 1053121). The note with it: D54 ERlucT glioma cells, NLG luciferase reporter gain-of-signal, 24 h; at 19.5 µM (top of the series). Background: A reporter such as luciferase makes a cellular process visible.
On to `Cc1ccc2cc(CN(CCCN(C)C)C(=O)Nc3ccccc3)c(=O)[nH]c2c1C`, for which the activation (reporter increase) was -11.1% (inactive).

Regarding `CN(C)S(=O)(=O)c1ccc(N2CCCC2)c(C(=O)N2CCOCC2)c1`, the activation (reporter increase) was 3.4% (inactive).

Turning to `CN(C)S(=O)(=O)c1ccc(N2CCCC2)c(C(=O)Nc2ccc(Br)cc2)c1`, the activation (reporter increase) is 32% (inactive).

Regarding `Cc1cnc(NC(=O)c2cccc(S(=O)(=O)N(C)C)c2)s1`, the activation (reporter increase) is -7.17% (inactive).

As to `COc1ccc2c(COC(=O)c3cccc(S(=O)(=O)NCC(C)C)c3)cc(=O)oc2c1`, the activation (reporter increase) is 19.5% (inactive).

With `Cc1cc(=O)[nH]c(N/N=C/c2cc(C)n(CC(F)(F)F)c2C)n1`, the activation (reporter increase) was -91.2% (inactive).

For the compound `Brc1ccc(CSc2nnc(-c3ccccc3)o2)cc1`, the activation (reporter increase) is -58.8% (inactive).

Take `COc1ccc(-c2nnc(SCc3ccccc3)o2)cc1`: the activation (reporter increase) is -91.2% (inactive).

Consider `CN(C)S(=O)(=O)c1ccc(N2CCCC2)c(C(=O)NC2CCCCC2)c1`, for which the activation (reporter increase) was -20% (inactive).

For the compound `C/C(=N\NC(=O)c1c([N+](=O)[O-])c(C)nn1C)c1ccc(NC(=O)C2CCCC2)cc1`, the activation (reporter increase) was -76.5% (inactive).

As for `COc1ccccc1-c1nnc(SCc2ccccc2)o1`, the activation (reporter increase) is -20.7% (inactive).

Consider `CN(C)CCCN(Cc1cc2ccccc2[nH]c1=O)C(=O)Nc1ccccc1`, for which the activation (reporter increase) was -2.22% (inactive).

Consider `O=C(Cc1ccccc1)c1nnc(-c2ccccc2)o1`, for which the activation (reporter increase) was -94.1% (inactive).

As for `O=C1CCNc2cc3ccccc3cc21`, the activation (reporter increase) is -83.9% (inactive).

Take `Cc1cnc(NC(=O)c2cc(S(=O)(=O)N(CC(C)C)CC(C)C)ccc2N2CCCC2)s1`: the activation (reporter increase) is -35.5% (inactive).

Consider `CN(C)S(=O)(=O)c1ccc(N2CCCC2)c(C(=O)Nc2cccnc2)c1`, for which the activation (reporter increase) was 48.4% (inactive).

Turning to `COc1ccc2sc(NC(=O)c3cc(S(=O)(=O)N(C)C)ccc3N3CCCC3)nc2c1`, the activation (reporter increase) is 29.4% (inactive).

As for `CN(C)CCCN(Cc1cc2ccccc2[nH]c1=O)C(=O)NCc1ccccc1`, the activation (reporter increase) is 0% (inactive).

`Cc1cnc(NC(=O)c2cc(S(=O)(=O)N(C)C)ccc2N2CCNCC2)s1`: the activation (reporter increase) is -10.1% (inactive).

For `CN(C)S(=O)(=O)c1ccc(N2CCCC2)c(C(=O)Nc2ccccc2Cl)c1`, the activation (reporter increase) is 5.18% (inactive).

Regarding `COc1ccc(CSc2nnc(-c3ccccc3)o2)cc1`, the activation (reporter increase) is -76.5% (inactive).

On to `Cc1nc(NC(=O)c2cc(S(=O)(=O)N(C)C)ccc2N2CCCC2)n[nH]1`, for which the activation (reporter increase) was 14.6% (inactive).
